Each structure is given as a SMILES string.

As a reminder, the EC50 is the concentration that produces a half-maximal response.

The test has as its target T1, human FFAR1 (GPR40) (Homo sapiens, UniProt O14842).
T1 construct: Flag; expressed in transfected cells; host or cells: HEK293T
Briefly: NFAT-RE-based reporter gene activity assay (Dual-Glo luciferase) for GPR40 agonistic activity in co-transfected HEK293T cells. The format is cell-based. As to conditions: 4-hour treatment; for Efficacy (%): class symbols. Put shortly: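 HEK293T cells co-transfected with human FFAR1, NFAT-RE firefly luciferase and TK-Renilla plasmids; 24 h later treated 4 h with 10 half-log compound dilutions from 1 µM. Firefly/Renilla ratio normalised to DMSO; EC50 from four-parameter fit.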
On the technique in general: A reporter such as luciferase makes a cellular process visible.

T1 sequence (O14842 whole entry): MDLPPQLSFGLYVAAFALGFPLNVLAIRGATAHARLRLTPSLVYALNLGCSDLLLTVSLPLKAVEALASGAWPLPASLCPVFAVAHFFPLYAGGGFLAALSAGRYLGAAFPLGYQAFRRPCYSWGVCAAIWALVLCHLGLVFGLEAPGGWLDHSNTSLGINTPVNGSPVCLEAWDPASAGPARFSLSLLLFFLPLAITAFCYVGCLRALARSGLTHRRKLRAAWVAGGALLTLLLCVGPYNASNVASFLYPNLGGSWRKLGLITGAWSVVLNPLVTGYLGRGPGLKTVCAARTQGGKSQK

With `COc1cccc(N2CCC(c3oc4cc([C@@H](CC(=O)O)C5CC5)ccc4c3-c3ccc4cccc(F)c4n3)CC2)c1` [Compound 155], the EC50 was in the range of 0.01 to 0.1 µM and the “Efficacy (%)” value was “††† (Efficacy (%) > 150)”.

Turning to `COc1ccc(F)c(N2CCC(c3oc4cc(C(CC(=O)O)C5CC5)ccc4c3-c3ccccc3)CC2)c1` (stereo not drawn) [Compound 156], the half-maximal effective concentration (EC50) is 0.1 to 0.5 µM and the “Efficacy (%)” value is listed as “†† (150 ≥ Efficacy (%) > 100)”.

Turning to `COc1ccc(F)c(N2CCC(c3oc4cc(C(CC(=O)O)C5CC5)ccc4c3-c3cccc(C)c3)CC2)c1` (stereo not drawn) [Compound 157], the concentration giving a half-maximal response (EC50) is 0.1 to 0.5 µM and the “Efficacy (%)” value was “††† (Efficacy (%) > 150)”.

In the case of `COc1ccc(F)c(N2CCC(c3oc4cc([C@@H](CC(=O)O)C5CC5)ccc4c3-c3cccc(C)c3)CC2)c1` [Compound 158], the 50% effective concentration (EC50) fell in the range of 0.1 to 0.5 µM and the “Efficacy (%)” value is listed as “†† (150 ≥ Efficacy (%) > 100)”.

As to `COc1ccc(F)c(N2CCC(c3oc4cc(C(CC(=O)O)C5CC5)ccc4c3-c3ccccc3C)CC2)c1` (stereo not drawn) [Compound 159], the 50% effective concentration (EC50) lay in the range of 0.1 to 0.5 µM and the “Efficacy (%)” value was “†† (150 ≥ Efficacy (%) > 100)”.

As for `COc1ccc(F)c(N2CCC(c3oc4cc(C(CC(=O)O)C5CC5)ccc4c3-c3ccc(C)cc3)CC2)c1` (stereo not drawn) [Compound 160], the EC50 was in the range of 0.1 to 0.5 µM and the “Efficacy (%)” value is given as “†† (150 ≥ Efficacy (%) > 100)”.

In the case of `COc1ccc(F)c(N2CCC(c3oc4cc([C@@H](CC(=O)O)C5CC5)ccc4c3-c3ccc(C)cc3)CC2)c1` [Compound 161], the 50% effective concentration (EC50) lay within 0.1 to 0.5 µM and the “Efficacy (%)” value is “† (100 ≥ Efficacy (%) > 50)”.

`CCc1ccc(-c2c(C3CCN(c4cc(OC)ccc4F)CC3)oc3cc(C(CC(=O)O)C4CC4)ccc23)cc1` (stereo not drawn) [Compound 162]: the concentration giving a half-maximal response (EC50) lay in the range of 0.1 to 0.5 µM and the “Efficacy (%)” value is listed as “††† (Efficacy (%) > 150)”.

In the case of `COc1ccc(F)c(N2CCC(c3oc4cc(C(CC(=O)O)C5CC5)ccc4c3-c3ccc(C(C)C)cc3)CC2)c1` (stereo not drawn) [Compound 163], the EC50 lay in the range of 0.1 to 0.5 µM and the “Efficacy (%)” value is given as “†† (150 ≥ Efficacy (%) > 100)”.

With `COc1ccc(F)c(N2CCC(c3oc4cc(C(CC(=O)O)C5CC5)ccc4c3-c3cccc(C4CC4)c3)CC2)c1` (stereo not drawn) [Compound 164], the half-maximal effective concentration (EC50) lay within 0.1 to 0.5 µM and the “Efficacy (%)” value was “†† (150 ≥ Efficacy (%) > 100)”.

With `COc1ccc(F)c(N2CCC(c3oc4cc([C@H](CC(=O)O)C5CC5)ccc4c3-c3cccc(C(C)(C)C)c3)CC2)c1` [Compound 167], the concentration for a half-maximal effect (EC50) was 0.1 to 0.5 µM and the “Efficacy (%)” value was “†† (150 ≥ Efficacy (%) > 100)”.

As to `COc1ccc(F)c(N2CCC(c3oc4cc([C@H](CC(=O)O)C5CC5)ccc4c3-c3ccc(C(C)(C)C)cc3)CC2)c1` [Compound 170], the EC50 lay within 0.1 to 0.5 µM and the “Efficacy (%)” value is reported as “†† (150 ≥ Efficacy (%) > 100)”.

On to `COc1ccc(F)c(N2CCC(c3oc4cc(C(CC(=O)O)C5CC5)ccc4c3-c3cccc(Cl)c3)CC2)c1` (stereo not drawn) [Compound 171], for which the 50% effective concentration (EC50) was 0.1 to 0.5 µM and the “Efficacy (%)” value is reported as “†† (150 ≥ Efficacy (%) > 100)”.

Take `COc1ccc(F)c(N2CCC(c3oc4cc(C(CC(=O)O)C5CC5)ccc4c3-c3cccc(C(F)(F)F)c3)CC2)c1` (stereo not drawn) [Compound 172]: the EC50 fell in the range of 0.1 to 0.5 µM and the “Efficacy (%)” value was “† (100 ≥ Efficacy (%) > 50)”.

On to `COc1ccc(F)c(N2CCC(c3oc4cc([C@@H](CC(=O)O)C5CC5)ccc4c3-c3cccc(OC(F)(F)F)c3)CC2)c1` [Compound 173], for which the concentration giving a half-maximal response (EC50) was in the range of 0.1 to 0.5 µM and the “Efficacy (%)” value is listed as “††† (Efficacy (%) > 150)”.

Consider `COc1ccc(F)c(N2CCC(c3oc4cc(C(CC(=O)O)C5CC5)ccc4c3-c3cccc(C#N)c3)CC2)c1` (stereo not drawn) [Compound 174], for which the half-maximal effective concentration (EC50) was in the range of 0.1 to 0.5 µM and the “Efficacy (%)” value is listed as “†† (150 ≥ Efficacy (%) > 100)”.

As to `COc1ccc(F)c(N2CCC(c3oc4cc([C@@H](CC(=O)O)C5CC5)ccc4c3-c3ccc(C(C)O)cc3)CC2)c1` (stereo partly drawn) [Compound 175], the EC50 was greater than 0.5 µM and the “Efficacy (%)” value is “†† (150 ≥ Efficacy (%) > 100)”.

As to `COc1ccc(F)c(N2CCC(c3oc4cc([C@@H](CC(=O)O)C5CC5)ccc4c3-c3ccc(C(C)OC)cc3)CC2)c1` (stereo partly drawn) [Compound 176], the concentration giving a half-maximal response (EC50) is 0.1 to 0.5 µM and the “Efficacy (%)” value is reported as “†† (150 ≥ Efficacy (%) > 100)”.

As for `COc1ccc(F)c(N2CCC(c3oc4cc([C@@H](CC(=O)O)C5CC5)ccc4c3-c3ccc(C(C)(C)O)cc3)CC2)c1` [Compound 177], the concentration giving a half-maximal response (EC50) lay in the range of 0.1 to 0.5 µM and the “Efficacy (%)” value was “†† (150 ≥ Efficacy (%) > 100)”.

As to `COc1ccc(F)c(N2CCC(c3oc4cc(C(CC(=O)O)C5CC5)ccc4c3-c3cccc(F)c3)CC2)c1` (stereo not drawn) [Compound 178], the half-maximal effective concentration (EC50) lay within 0.1 to 0.5 µM and the “Efficacy (%)” value is “†† (150 ≥ Efficacy (%) > 100)”.

With `COc1ccc(-c2c(C3CCN(c4cc(OC)ccc4F)CC3)oc3cc([C@@H](CC(=O)O)C4CC4)ccc23)cc1` [Compound 179], the EC50 lay within 0.1 to 0.5 µM and the “Efficacy (%)” value was “††† (Efficacy (%) > 150)”.

With `COc1ccc(F)c(N2CCC(c3oc4cc(C(CC(=O)O)C5CC5)ccc4c3-c3ccc(SC)cc3)CC2)c1` (stereo not drawn) [Compound 181], the 50% effective concentration (EC50) fell in the range of 0.1 to 0.5 µM and the “Efficacy (%)” value is “†† (150 ≥ Efficacy (%) > 100)”.

With `COc1ccc(F)c(N2CCC(c3oc4cc(C(CC(=O)O)C5CC5)ccc4c3-c3ccc(S(=O)(=O)C(C)C)cc3)CC2)c1` (stereo not drawn) [Compound 183], the EC50 lay in the range of 0.1 to 0.5 µM and the “Efficacy (%)” value is “†† (150 ≥ Efficacy (%) > 100)”.

Consider `COc1ccc(F)c(N2CCC(c3oc4cc(C(CC(=O)O)C5CC5)ccc4c3-c3ccc(NC(C)C)cc3)CC2)c1` (stereo not drawn) [Compound 184], for which the 50% effective concentration (EC50) is 0.1 to 0.5 µM and the “Efficacy (%)” value is listed as “† (100 ≥ Efficacy (%) > 50)”.

Consider `COc1ccc(F)c(N2CCC(c3oc4cc(C(CC(=O)O)C5CC5)ccc4c3-c3ccc(N(C)C(C)C)cc3)CC2)c1` (stereo not drawn) [Compound 185], for which the concentration giving a half-maximal response (EC50) was in the range of 0.1 to 0.5 µM and the “Efficacy (%)” value is recorded as “†† (150 ≥ Efficacy (%) > 100)”.

With `COc1ccc(F)c(N2CCC(c3oc4cc(C(CC(=O)O)C5CC5)ccc4c3-c3ccc(N(C(C)=O)C(C)C)cc3)CC2)c1` (stereo not drawn) [Compound 186], the EC50 was in the range of 0.1 to 0.5 µM and the “Efficacy (%)” value is on record as “† (100 ≥ Efficacy (%) > 50)”.

For `COc1ccc(F)c(N2CCC(c3oc4cc(C(CC(=O)O)C5CC5)ccc4c3-c3cccc(NC(C)C)c3)CC2)c1` (stereo not drawn) [Compound 187], the EC50 was 0.1 to 0.5 µM and the “Efficacy (%)” value is reported as “†† (150 ≥ Efficacy (%) > 100)”.

`COc1ccc(F)c(N2CCC(c3oc4cc(C(CC(=O)O)C5CC5)ccc4c3-c3cccc(NCC(C)(C)C)c3)CC2)c1` (stereo not drawn) [Compound 188]: the EC50 lay within 0.1 to 0.5 µM and the “Efficacy (%)” value is given as “†† (150 ≥ Efficacy (%) > 100)”.

Consider `COc1ccc(F)c(N2CCC(c3oc4cc(C(CC(=O)O)C5CC5)ccc4c3-c3cccc(N(CC(C)(C)C)C(C)=O)c3)CC2)c1` (stereo not drawn) [Compound 190], for which the concentration for a half-maximal effect (EC50) is 0.1 to 0.5 µM and the “Efficacy (%)” value is listed as “†† (150 ≥ Efficacy (%) > 100)”.

For `COc1ccc(F)c(N2CCC(c3oc4cc(C(CC(=O)O)C5CC5)ccc4c3-c3cccc(N(C(C)=O)C(C)C)c3)CC2)c1` (stereo not drawn) [Compound 191], the 50% effective concentration (EC50) lay in the range of 0.1 to 0.5 µM and the “Efficacy (%)” value is “†† (150 ≥ Efficacy (%) > 100)”.

For the molecule `COc1ccc(F)c(N2CCC(c3oc4cc(C(CC(=O)O)C5CC5)ccc4c3-c3cccc(N4CCCC4(C)C)c3)CC2)c1` (stereo not drawn) [Compound 192], the EC50 was in the range of 0.1 to 0.5 µM and the “Efficacy (%)” value was “†† (150 ≥ Efficacy (%) > 100)”.

With `COc1ccc(F)c(N2CCC(c3oc4cc(C(CC(=O)O)C5CC5)ccc4c3-c3cccc(-n4cccn4)c3)CC2)c1` (stereo not drawn) [Compound 193], the EC50 lay within 0.1 to 0.5 µM and the “Efficacy (%)” value is reported as “†† (150 ≥ Efficacy (%) > 100)”.

On to `COc1ccc(F)c(N2CCC(c3oc4cc([C@@H](CC(=O)O)C5CC5)ccc4c3-c3ccc(C(=O)NCC(C)(C)C)cc3)CC2)c1` [Compound 198], for which the EC50 fell in the range of 0.1 to 0.5 µM and the “Efficacy (%)” value is given as “†† (150 ≥ Efficacy (%) > 100)”.

Turning to `COc1ccc(F)c(N2CCC(c3oc4cc(C(CC(=O)O)C5CC5)ccc4c3-c3ccc(C(=O)N4CCCC4)cc3)CC2)c1` (stereo not drawn) [Compound 200], the EC50 lay in the range of 0.1 to 0.5 µM and the “Efficacy (%)” value was “†† (150 ≥ Efficacy (%) > 100)”.

Regarding `COc1ccc(F)c(N2CCC(c3oc4cc(C(CC(=O)O)C5CC5)ccc4c3-c3ccc(C(=O)N(C)CC(C)(C)C)cc3)CC2)c1` (stereo not drawn) [Compound 202], the 50% effective concentration (EC50) was 0.1 to 0.5 µM and the “Efficacy (%)” value is on record as “†† (150 ≥ Efficacy (%) > 100)”.

As to `COc1ccc(Cl)c(N2CCC(c3oc4cc(C(CC(=O)O)C5CC5)ccc4c3-c3cccc(C(C)(C)C)c3)CC2)c1` (stereo not drawn) [Compound 203], the EC50 lay in the range of 0.1 to 0.5 µM and the “Efficacy (%)” value is “† (100 ≥ Efficacy (%) > 50)”.

`COc1cc(OC)cc(N2CCC(c3oc4cc(C(CC(=O)O)C5CC5)ccc4c3-c3ccc(C(C)(C)C)cc3)CC2)c1` (stereo not drawn) [Compound 205]: the EC50 was in the range of 0.1 to 0.5 µM and the “Efficacy (%)” value was “† (100 ≥ Efficacy (%) > 50)”.

Take `COc1cc(N2CCC(c3oc4cc(C(CC(=O)O)C5CC5)ccc4c3-c3ccc(C(C)(C)C)cc3)CC2)ccc1F` (stereo not drawn) [Compound 206]: the 50% effective concentration (EC50) fell in the range of 0.1 to 0.5 µM and the “Efficacy (%)” value is “†† (150 ≥ Efficacy (%) > 100)”.

For `CC(C)(C)c1ccc(-c2c(C3CCN(c4ccc5c(c4)OCC5)CC3)oc3cc(C(CC(=O)O)C4CC4)ccc23)cc1` (stereo not drawn) [Compound 208], the EC50 lay within 0.1 to 0.5 µM and the “Efficacy (%)” value is given as “††† (Efficacy (%) > 150)”.

For the molecule `CC(C)(C)c1ccc(-c2c(C3CCN(c4ccc5ccoc5c4)CC3)oc3cc(C(CC(=O)O)C4CC4)ccc23)cc1` (stereo not drawn) [Compound 209], the EC50 was 0.1 to 0.5 µM and the “Efficacy (%)” value is reported as “†† (150 ≥ Efficacy (%) > 100)”.

As for `Cc1cccc(-c2c(C3CCN(c4ccc5c(c4)OCO5)CC3)oc3cc(C(CC(=O)O)C4CC4)ccc23)c1` (stereo not drawn) [Compound 210], the EC50 was 0.1 to 0.5 µM and the “Efficacy (%)” value was “†† (150 ≥ Efficacy (%) > 100)”.

Turning to `COc1cccc(-c2c(C3CCN(c4ccc5c(c4)OCO5)CC3)oc3cc(C(CC(=O)O)C4CC4)ccc23)c1` (stereo not drawn) [Compound 211], the concentration for a half-maximal effect (EC50) lay within 0.1 to 0.5 µM and the “Efficacy (%)” value is given as “††† (Efficacy (%) > 150)”.
